pIC50: −log10 of the molar value. Starred links: 1 amine or outer side, 2 acyl side, 3 side chain; linkers in the order of their positions; H or OH if unused. Positions of bridges follow the written chain, without caps; N, C: chain ends. Non-standard residues stand in square brackets, D forms with d. Residues, ends and D or L forms follow the SMILES beside them. *: point of attachment. hPhe(3-Cl-4-CF3) = N[C@@H](CCc1ccc(C(F)(F)F)c(Cl)c1)C(=O)O; NMePhe(4-Me) = CN[C@@H](Cc1ccc(C)cc1)C(=O)O; NMedβ3hAla = C[C@H](CC(=O)[*:2])N(C)[*:1]; NMeCha = CN[C@@H](CC1CCCCC1)C(=O)O; NMeGly(cPr) = CN[C@H](C(=O)O)C1CC1; NMeChg = CN[C@H](C(=O)O)C1CCCCC1; NMeI = CC[C@H](C)[C@H](NC)C(=O)O; NMeD = CN[C@@H](CC(=O)O)C(=O)O; NMeL = CN[C@@H](CC(C)C)C(=O)O; NMeV = CN[C@H](C(=O)O)C(C)C; d(β3hA) = C[C@@H](N)CC(=O)O; NMeS = CN[C@@H](CO)C(=O)O; NMeA = CN[C@@H](C)C(=O)O; Piperidide = C1CCN(*)CC1; Pyrrolidide = C1CCN(*)C1; dNMeA = CN[C@H](C)C(=O)O; Ac5c = NC1(C(=O)O)CCCC1; Aze = O=C(O)[C@@H]1CCN1; Cyclopropyl = C1CC1*; Sar = CNCC(=O)O
Tests used:
[1] = biological target: T1, Kras and SOS1 (biotin-tagged human Kras loaded with GDP, His-tagged human SOS1) (Homo sapiens, UniProt P01116, G12D); test: Protein-protein interaction inhibition between Kras and SOS1 (KrasGl2D-SOS PPI) using AlphaScreen; type: binding; details: AlphaScreen; biotin-tagged human Kras loaded with GDP, His-tagged human SOS1; read-out: KRAS G12D-SOS PPI IC50
T1 construct: made in house; host or cells: E. coli (stated for Kras only)
How it was run: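 Read-out is acceptor-bead light at 520-620 nm, arising when 680 nm-irradiated nickel donor beads pass singlet oxygen to streptavidin acceptors. The bead pair links His-tagged SOS1 with biotin-tagged, GDP-bound Kras from E. coli.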

[2] = test system: Human pancreatic cancer cell line AsPC-1; test: Measurement of AsPC-1 cell growth inhibition (AsPC-1 CGI); type: cell-based; details: 96 h
How it was run: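 AsPC-1 cells in 15% FBS RPMI-1640 were exposed to test compound for 96 hours at 37° C, with CellTiter-Glo as endpoint.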

T1 sequence (P01116 1-188 isoform P01116-2 G12D): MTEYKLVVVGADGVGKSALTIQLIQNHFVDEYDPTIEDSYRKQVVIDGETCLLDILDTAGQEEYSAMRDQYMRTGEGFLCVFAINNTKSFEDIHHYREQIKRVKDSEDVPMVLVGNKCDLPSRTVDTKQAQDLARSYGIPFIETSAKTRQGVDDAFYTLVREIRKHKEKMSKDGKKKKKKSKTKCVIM

SMILES	pIC50 [1]	pIC50 [2]
CC[C@H](C)[C@@H]1NC(=O)[C@H](CC(C)C)N(C)C(=O)C[C@@H](C)NC(=O)[C@H]([C@@H](C)CC)N(C)C(=O)C2(CCCC2)NC(=O)[C@@H]2CCCN2C(=O)[C@H](CCc2ccc(C(F)(F)F)c(Cl)c2)NC(=O)CN(C)C(=O)[C@H](Cc2ccc(C)cc2)N(C)C(=O)CN(C)C(=O)CN(C)C1=O [Compound 1774] (cyclo([Ac5c][NMeI][d(β3hA)][NMeL]I[Sar][Sar][NMePhe(4-Me)][Sar][hPhe(3-Cl-4-CF3)]P))	9.08	6.30 to 7.00
CC[C@H](C)[C@@H]1NC(=O)[C@H](C)N(C)C(=O)C[C@@H](C)N(C)C(=O)[C@H](C(C)C)N(C)C(=O)C2(CCCC2)NC(=O)[C@@H]2CCCN2C(=O)[C@H](CCc2ccc(C(F)(F)F)c(Cl)c2)NC(=O)[C@@H](C)N(C)C(=O)[C@H](CC2CCCCC2)N(C)C(=O)[C@@H]2CCCN2C(=O)CN(C)C1=O [Compound 1784] (cyclo([Ac5c][NMeV][NMedβ3hAla][NMeA]I[Sar]P[NMeCha][dNMeA][hPhe(3-Cl-4-CF3)]P))	7.96	7.00 to 7.30
CC[C@H](C)[C@@H]1NC(=O)[C@H](COC2CC2)N(C)C(=O)C[C@@H](C(=O)N2CCCCC2)N(C)C(=O)[C@H](C2CCCCC2)N(C)C(=O)C2(CCCC2)NC(=O)[C@@H]2CCCN2C(=O)[C@H](CCc2ccc(C(F)(F)F)c(Cl)c2)NC(=O)CN(C)C(=O)[C@H](CC2CCCCC2)N(C)C(=O)CN(C)C(=O)CN(C)C1=O [Compound 1786] ([NMeS](Cyclopropyl)I[Sar][Sar][NMeCha][Sar][hPhe(3-Cl-4-CF3)]P[Ac5c][NMeChg][NMeD]-Piperidide; lactam N-11)	9.14	7.00 to 7.30
CC[C@H](C)[C@@H]1NC(=O)[C@H](CC(C)C)N(C)C(=O)C[C@@H](C(=O)N2CCCC2)N(C)C(=O)[C@H]([C@@H](C)CC)N(C)C(=O)C2(CCCC2)NC(=O)[C@@H]2CCCN2C(=O)[C@H](CCc2ccc(C(F)(F)F)c(Cl)c2)NC(=O)CN(C)C(=O)[C@H](Cc2ccc(C)cc2)N(C)C(=O)CN(C)C(=O)CN(C)C1=O [Compound 1790] ([NMeL]I[Sar][Sar][NMePhe(4-Me)][Sar][hPhe(3-Cl-4-CF3)]P[Ac5c][NMeI][NMeD]-Pyrrolidide; lactam N-11)	9.15	7.30 to 7.70
CC[C@H](C)[C@@H]1NC(=O)[C@H](C2CC2)N(C)C(=O)C[C@@H](C(=O)N2CCCCC2)N(C)C(=O)[C@H](C2CCCCC2)N(C)C(=O)C2(CCCC2)NC(=O)[C@@H]2CCCN2C(=O)[C@H](CCc2ccc(C(F)(F)F)c(Cl)c2)NC(=O)CN(C)C(=O)[C@H](CC2CCCCC2)N(C)C(=O)CN(C)C(=O)CN(C)C1=O [Compound 1796] ([NMeGly(cPr)]I[Sar][Sar][NMeCha][Sar][hPhe(3-Cl-4-CF3)]P[Ac5c][NMeChg][NMeD]-Piperidide; lactam N-11)	9.12	6.30 to 7.00
CC(C)C[C@H]1C(=O)N[C@@H](C(C)C)C(=O)N(C)CC(=O)N(C)CC(=O)N(C)[C@@H](CC2CCCCC2)C(=O)N(C)CC(=O)N[C@@H](CCc2ccc(C(F)(F)F)c(Cl)c2)C(=O)N2CCC[C@H]2C(=O)NC2(CCCC2)C(=O)N(C)[C@@H](C2CCCCC2)C(=O)N(C)[C@H](C(=O)N2CCCCC2)CC(=O)N1C [Compound 1798] ([NMeL]V[Sar][Sar][NMeCha][Sar][hPhe(3-Cl-4-CF3)]P[Ac5c][NMeChg][NMeD]-Piperidide; lactam N-11)	9.00	7.00 to 7.30
CC[C@H](C)[C@@H]1NC(=O)[C@H](CC(C)C)N(C)C(=O)C[C@@H](C(=O)N2CCCCC2)N(C)C(=O)[C@H](C(C)C)N(C)C(=O)C2(CCCC2)NC(=O)[C@@H]2CCCN2C(=O)[C@H](CCc2ccc(C(F)(F)F)c(Cl)c2)NC(=O)CN(C)C(=O)[C@H](CC(C)C)N(C)C(=O)[C@@H]2CCN2C(=O)[C@H](C)N(C)C1=O [Compound 1803] ([NMeL]I[NMeA][Aze][NMeL][Sar][hPhe(3-Cl-4-CF3)]P[Ac5c][NMeV][NMeD]-Piperidide; lactam N-11)	8.28	6.30 to 7.00

— patent US12371454B2, “Cyclic peptide compound having Kras inhibitory action” (priority 2019, dated 2025)
